According to US12343324B2, “Dihydromyricetin hot melt extrusion formulations and methods for forming them” (The Trustees of Princeton University, priority 2018, dated 2025):
In brackets after ≈: the same amount, converted by molar mass.

Columns and labels:
[1] = Equilibrium solubility in fasted state simulated intestinal fluid (FaSSIF); format: physicochemical; conditions: thermodynamic from solid, pH 6.5, 37° C., read-out: equilibrium solubility of crystalline DHM in FaSSIF
[2] = reference [31]; cited from earlier work
[3] = Equilibrium solubility in fed state simulated intestinal fluid (FeSSIF); format: physicochemical; conditions: thermodynamic from solid, pH 5.0, 37° C., read-out: equilibrium solubility of crystalline DHM in FeSSIF

In the case of O=C1c2c(O)cc(O)cc2O[C@H](c2cc(O)c(O)c(O)c2)[C@H]1O [DHM, dihydromyricetin], the solubility thermodynamic [1] is given as ~50 µg/mL (≈ 156 µM), the oral bioavailability [2] is given as “less than 5%” and the solubility thermodynamic [3] is given as ~140 µg/mL (≈ 437 µM).
